Results: patent US20250295668A1, “METHODS FOR INDUCING COLANIC ACID BIOSYNTHESIS” (priority 2024, published 2025)
Converted amounts (≈) assume the structure as drawn. “Also recorded” adds a separate entry of the source. Where two headings read alike, the source gives them in different places.

Key:
[1] = tested on: cps operon in commensal E. coli; test: cps G-R reporter bacteria from mouse ileum, in vivo imaging (GFP-to-RFP ratio); set-up: species or system C57BL6 mice; conditions: for increase in GFP-to-RFP ratio: oral gavage plus drinking water, 3 hours, ileum
Protocol: In vivo imaging: Co-housed female C57BL6 mice received cps G-R reporter E. coli at 1×10^8 CFU per 100 mL through distilled drinking water. The bacteria-containing water was prepared and replaced daily for three days continuously. […] Luminal content from the ileum was collected and processed for imaging bacteria from in vivo samples immediately after euthanasia as previously described [PMID: 34428120]. In brief, the ileum sections were collected and then finely minced by a pair of iris scissors in 2 mL 1×PBS. Samples were then vortexed for 1 minute and filtered with a sterile cell strainer (40 μm) to remove the tissue debris. The microbiota was washed 3 times with 1.5 mL PBS by centrifugation (15,000×g, 3 min) and then resuspended in 0.1 mL PBS for imaging.
The cps G-R reporter strain was introduced to wild-type C57B6 mice through drinking water, followed by cephaloridine administration through a single-dose oral gavage and cephaloridine-containing water for 3 hours, which allowed for sufficient intestinal transit time [PMID: 23915679] and E. coli turnover time [PMID: 26392213] for optimal dosing (FIG. 3E). […] The luminal content of mice ileum was harvested after 3 hours of cephaloridine administration and were imaged for fluorescence.

PBP1a = PBP1a (Escherichia coli, UniProt P02918); conditions: E. coli, literature; cited from earlier work
Sequence of PBP1a (P02918 whole entry, the tested form may be a part): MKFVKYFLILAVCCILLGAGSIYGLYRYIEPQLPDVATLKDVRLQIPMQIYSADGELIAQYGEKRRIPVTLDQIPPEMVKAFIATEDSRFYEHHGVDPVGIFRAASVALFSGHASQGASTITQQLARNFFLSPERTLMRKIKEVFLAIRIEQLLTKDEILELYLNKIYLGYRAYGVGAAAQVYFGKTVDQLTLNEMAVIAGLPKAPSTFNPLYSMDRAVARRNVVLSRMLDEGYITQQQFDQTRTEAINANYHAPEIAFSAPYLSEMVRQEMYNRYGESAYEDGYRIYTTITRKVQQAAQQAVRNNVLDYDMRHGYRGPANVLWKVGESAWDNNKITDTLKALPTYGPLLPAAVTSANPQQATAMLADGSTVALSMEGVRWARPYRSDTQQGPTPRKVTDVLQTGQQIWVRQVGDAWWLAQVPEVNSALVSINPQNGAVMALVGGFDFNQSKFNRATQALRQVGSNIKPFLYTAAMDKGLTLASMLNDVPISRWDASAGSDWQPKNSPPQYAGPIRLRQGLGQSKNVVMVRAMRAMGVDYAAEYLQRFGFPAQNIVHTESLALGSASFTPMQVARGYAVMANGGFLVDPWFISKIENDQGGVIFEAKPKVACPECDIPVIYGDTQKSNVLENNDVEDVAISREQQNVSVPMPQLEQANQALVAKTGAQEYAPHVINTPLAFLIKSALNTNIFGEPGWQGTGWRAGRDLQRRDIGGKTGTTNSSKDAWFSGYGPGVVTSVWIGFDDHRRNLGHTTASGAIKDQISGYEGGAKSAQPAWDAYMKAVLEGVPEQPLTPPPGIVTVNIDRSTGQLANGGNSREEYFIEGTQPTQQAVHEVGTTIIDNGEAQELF

cps operon = test: Disk diffusion assay for cps induction, SG20781 cpsB::lacZ reporter; type: cell-based, E. coli; conditions: SG20781, filter paper disks 10 or 100 μg, 24 hours at 37° C.
Protocol: For antibiotic screening targeting cps expression, the SG20781 strain (MC4100 lon+cpsB10::lacZ Mu-immλ) was used. The bacteria were cultured overnight at 37° C. in Luria-Broth (LB) medium and evenly plated on X-gal (40 μg/mL) supplemented LB agar plates, and incubated overnight.
E. coli strain SG20781 was used to assess antibiotic cps induction via disk diffusion as previously described [PMID: 14553918]. In brief, an overnight bacteria culture was spread onto LB agar containing 0.1 mg ml-1 5-bromo-4-chloro-3-indolyl-β-D-galactoside (X-gal). […] The soaked filter papers were placed onto the bacteria-seeding plates and incubated for 24 hours at 37° C.
Certain β-lactam antibiotics trigger the overexpression of the cps operon in E. coli [PMID: 14553918]. To validate this finding, a disk diffusion assay was performed using SG20781, an E. coli strain that harbors a LacZ reporter for the cps operon transcriptional regulation. Using a colorimetric assay, an increased level of […] reacts with X-gal, resulting in an intensified blue coloration as a result of the transcriptional up-regulation of the cps operon.

[2] = Age-related metabolic dysfunction in mice, cephaloridine in drinking water; type: in vivo; conditions: oral 2 μg/mL
Protocol: Methods: Co-housed 12-month-old […] mice were given MG1655 E. coli at 1×10^8 CFU/mL through distilled drinking water (100 mL) for 24 hours to maintain E. coli occupancy in the mouse gut microbiota. Subsequently, mice received 2 μg/mL cephaloridine through drinking water (100 mL) for 60 hours. […] This entire procedure was then repeated. Cephaloridine dosages were calculated as follows. Briefly, a typical mouse used in this study consumed 5-10 ml of water per day and weighed between 30-40 g. Using the 2 μg/mL concentration, a lower bound of 0.25 mg/kg (0.002 mg/mL×5 mL=0.04 kg) and a higher bound of 0.67 mg/kg (0.002 mg/mL×10 mL=0.03 kg) were identified.

E. coli [3] = test: Bacterial growth under low-dose cephaloridine; type: cell-based; conditions: low-dose cephaloridine vs vehicle-treated E. coli
E. coli deletion mutants = test: Colanic acid measurement in E. coli deletion mutants; type: cell-based; conditions: low-dose cephaloridine
Protocol: For colanic acid quantification, E. coli Keio mutants and the parental strain BW25113 were cultured overnight at 37° C. in M9 minimum medium [PMID: 28436966]. Bacteria were then removed by centrifugation and filtered for colanic acid measurement.
The desired bacterial strain was first inoculated and cultured in M9 minimum medium overnight at 37° C. to obtain the seeding culture. The OD 600 was measured, and the seeding bacteria were diluted to OD600=0.02 in M9 minimum medium for another 16 hours. After the incubation, bacterial cultures were collected in 50 mL tubes, spun down at 4,000 g at 4° C. for 30 min, filtered, and 25 mL of supernatant was collected per 50 ml conical tube. Ice-cold 100% ethanol (EtOH) was added to make a final 50% EtOH solution for precipitation, and the mixture was kept at 4° C. overnight. Once precipitation occurred, the liquid was carefully removed after centrifugation at 4,000 g at 4° C. for 50 min. The pellet was washed once with cold 80% EtOH and then air-dried in a hood. The pellet from every 50 mL culture was resuspended in 500 μL distilled H2O. The solution was sonicated for 60 minutes at 37° C., followed by centrifugation at 4000 g at 4° C. for 10 minutes. A 200 μL sample was mixed with 30 μL hydrochloric acid (320331-500 mL, Sigma-Aldrich) and boiled for 2 hours. Subsequently, 60 μL 5M NaOH and 150 μL NaHCO3/NaOH buffer were added to reach a pH of 6-8, calibrated by 1M HCl or NaOH solutions. The fucose quantification assay was then carried out using a K-FUCOSE kit (Megazyme) according to the manufacturer's protocol.
The molecular mechanism behind the induction of colanic acid by low-dose cephaloridine was investigated. It was suspected that regulation of the cps operon was centered on the well-known RCS two-component system. Canonically, the RcsC sensor histidine kinase situated in the inner membrane autophosphorylates in response to environmental cues, then the RcsD phosphotransferase transmits the phosphoryl group to the cytosolic response regulator RcsB, which functions as a transcription factor to up-regulate the cps operon, with RcsA interacting with RcsB to enhance its binding with the promoter, thereby stimulating transcriptional activation (FIG. 4A). To assess the necessity of the RCS system in colanic acid induction by low-dose cephaloridine, the E. coli deletion mutants of rcsA, rcsB, rcsC, and rcsD were treated with cephaloridine and colanic acid production was measured in their respective culture mediums.
Considering β-lactam antibiotics show preferential affinities to various penicillin-binding proteins (PBPs) [PMID: 25733506] [PMID: 1103132], the role of these inner membrane proteins in colanic acid induction upon low-dose cephaloridine treatment was determined. […] (FIG. 5A).
To investigate potential mediation of colanic acid induction by these kinases, E. coli deletion mutants of btsS, glrK, and zraS were treated with low-dose cephaloridine and colanic acid levels in their respective culture mediums were measured. Due to slow growth in the M9 culture medium, the rstB deletion mutant could not be evaluated.

E. coli [4] = conditions: previously reported, cited from earlier work

## O=C(Cc1cccs1)N[C@@H]1C(=O)N2C(C(=O)[O-])=C(C[n+]3ccccc3)CS[C@H]12 [cephaloridine]
[1]; 4 μg/mL dose
  cps operon induction in the mouse intestine: induced the cps operon
[1]; 4 μg/mL
  increase in GFP-to-RFP ratio: 13%
[1]; 8 μg/mL dose
  cps operon induction in the mouse intestine: failed to exert this effect
[1]; 8 μg/mL
  increase in GFP-to-RFP ratio: no such increase
PBP1a
  binding to PBP1a: primarily binds to PBP1a
Cps operon
  cps induction (blue coloration): promote various shades of blue coloration
[2]; female mice
  increase in plasma insulin between 12 and 18 months of age vs controls: lower
[2]; male mice
  age-related increase in LDL:HDL ratio: suppressed
  plasma HDL: not affected
  plasma LDL between 12 and 18 months of age: remain nearly unchanged
E. coli [3]
  effect on bacterial growth: did not hinder bacteria growth; also recorded: does not alter bacterial growth
E. coli deletion mutants; DacB deletion mutant (PBP4)
  amount of colanic acid vs treated wild-type strain: even greater amount of colanic acid than the wild-type strain
  induction of colanic acid: did induce colanic acid production
E. coli deletion mutants; mrcA deletion mutant (PBP1a)
  induction of colanic acid: failed to induce colanic acid
E. coli deletion mutants; rcsA deletion mutant
  induction of colanic acid: completely abolished the induction of colanic acid
E. coli deletion mutants; rcsB deletion mutant
  induction of colanic acid: completely abolished the induction of colanic acid
E. coli deletion mutants; rcsC deletion mutant
  induction of colanic acid: no impact on the induction of colanic acid
E. coli deletion mutants; rcsD deletion mutant
  induction of colanic acid: no impact on the induction of colanic acid
E. coli deletion mutants; zraS deletion mutant
  induction of colanic acid: suppressed the induction of colanic acid
E. coli [4]; PMID 380457
  MIC: 2 µg/mL (≈ 4.81 µM)
E. coli [4]; PMID 9371340
  MIC: 4 µg/mL (≈ 9.63 µM)
